The numbers were not newly measured in US20230201393A1, “DI[…] AND METHODS USING POLYMER COMPOSITIONS THAT FORM CHLORINE DIOXIDE GAS” (priority 2020, published 2023), which cites them from elsewhere.

In one data set the test system is poliovirus 1. The following applies: 4 ppm ClO2, 5 minutes of exposure.

Consider `[O][Cl+][O-]` [Chlorine dioxide], for which the miscibility in water result is given as “up to 60 g/L”. The survival rate with Influenza A (0.03 ppm ClO2 administered after, versus 30% when untreated) is reported as 100%. The log kill in the data set on Influenza A (0.03 ppm of ClO2 administered at the same time as the virus) was 4 log. For the same compound, in the data set on poliovirus 1, the inactivation was ≥ 99.9%.
